This assay deals with Leishmania donovani tyrosyl-tRNA synthetase (LdTyrRS) (Leishmania donovani, UniProt A0A3Q8ID88). Put plainly: X-ray co-crystal structure at […] Å. The class given is biochemical.

As to `Nc1ncnc2c1ncn2[C@@H]1O[C@H](COS(=O)(=O)NC(=O)[C@@H](N)Cc2ccc(O)cc2)[C@@H](O)[C@H]1O` [TyrSA, 5'-O-[N-(L-tyrosyl)sulfamoyl]adenosine], the 50% inhibitory concentration (IC50) was 0.69 nM.

Values taken from paper PMC5484532 (Biochimie, 2017).
